Experimental findings from patent publication US20120034613A1, “Apparatus and Method for Testing Relationships Between Gene Expression and Physical Appearance of Skin” (NSE Products, Inc., priority 2010, published 2012) are described below.

The subject of the assay is facial skin. As to the kind of experiment: Cutometer measurement of extensibility of the skin, 12 week clinical study. The class given is in vivo, human. The note with it: for Cutometer Extensibility Mean: Baseline mean 1.15. From the text:
A single cutometer measurement was taken on the right side of the subject's face, in line with the corner of the eye and the edge of the nostril, to measure the extensibility of the skin. All clinical and corneometer measurements and evaluations were taken at baseline, week 1 (visit 2), week 4 (visit 3), week 8 (visit 4) and week 12 (visit 5). Ultrasound and cutometer measurements and evaluations were taken at baseline, week 4 (visit 3), week 8 (visit 4) and week 12 (visit 5). Completed patient's diaries were reviewed for compliance at each visit. Mean clinical grading and instrumentation scores at each visit were statistically compared to baseline scores using paired t-test. Changes from baseline were considered significant at the p≦0.05 level. Mean percent change from baseline and incidence of positive responders were calculated for all attributes. Comparisons, based on the average from baseline, were made between the test materials using analysis of variance (ANOVA).

As for `OCc1ccccc1O[C@@H]1O[C@H](CO)[C@@H](O)[C@H](O)[C@H]1O` [Salicin, 2-(Hydroxymethyl)phenyl β-D-glucospyranoside], the “Cutometer Extensibility Mean” value by setting is: (Week 4) 1.17; (Week 8) 1.17; (Week 12) 1.26. For the same molecule, the “Cutometer Extensibility % Change” value reads like this: (Week 4 vs Baseline) “(1.8%)”; (Week 8 vs Baseline) “(1.3%)”; (Week 12 vs Baseline) “(9.6%)”.
